Measurements from US10251902B2, “Pharmaceutical composition for treating or preventing neuropsychiatric disease, containing flavone-6-C-glucose derivatives as active ingredients” (priority 2013, dated 2019).

Tests used:
Type in all cases: in vivo, ICR mice
[1] = tested on: pentobarbital-induced sleep; assay: Sleep-inducing test (pentobarbital); settings: swertisin 10 mg/kg
Protocol: Six-week old ICR mice in about 26 g to 28 g (Orientbio Inc, Republic of Korea) were received water and feed without constraint and adapted for 5 days under an environment having about 23±1° C. of temperature, about 60±10% of humidity and 12-hour light/dark cycle (animal laboratory at College of Pharmacy, Kyung-Hee University), and then used for the experiment. Foods were blocked at 24 hours before the test.
The mice prepared in 1) were divided into […] (10 mice per each group) including the drug administration group 1, wherein swertisin was administered, and the controls 1 and 2. Swertisin prepared in Example 3 was dissolved in 10% Tween 80 (Polyoxyethylene sorbitan monooleate: Sigma, U.S.A.) and administered to the drug administration group 1 in an amount of 10 mg/kg. Meanwhile, 0.15 mL of 10% Tween 80 was administered to the control 1.
After 1 hour of administration, pentobarbital was dissolved in a saline solution and intraperitoneally administered to the mouse in an amount of 60 mg/kg. The mouse was located in the cage. At this time, straw was laid in the cage only enough to cover the floor, and only one mouse was located in the cage for observation. […]

[2] = tested on: brain cells in the hippocampal region, mouse model of stroke; assay: Neurological scoring of hippocampal brain cell damage (Nissl staining) in mouse model of stroke; settings: for Neurological Score: Table 13, score 0-3 points of hippocampal damage
Protocol: (§1) Seven-week old ICR mice in about 30 g to 35 g (Orientbio Inc, Republic of Korea) were received water and feed without constraint and adapted for 5 days under an environment having about 23±1° C. of temperature, about 60±10% of humidity and 12-hour light/dark cycle (animal laboratory at College of Pharmacy, Kyung-Hee University), and then used for the experiment.
(§2) The laboratory animal in 1) was located in an operating room, adapted for 60 minutes, and anesthetized in a space providing anaesthetic gasses (nitrous oxide: 70%; oxygen: 30%; isoflurane: 2.0%). Pain reflex was examined to confirm the anesthesia. The laboratory animal was lain down straight on an operating table, and fixed its upper limb and head. Skin from the spot, where the upper limb and the center line meet, was incised as 1.5 cm to expose the both common carotid arteries by using tweezers while not damaging the tissues. Tissues and nerves attached to the exposed carotid arteries were separated and fixed with an aneurysm clip. The clip was removed after 15 minutes and reperfused, and the incised area was sutured with sutures. After the suture, the laboratory animal was immediately moved to a recovery room (32-33° C., O2 enrichment condition) and kept until it recovers from anesthesia. Observation on its weight and status was conducted once a day for 4 days after the operation.
Meanwhile, upon termination of the Y-maze test, a 4% paraformaldehyde fixation was conducted on the drug administration groups 1-3 and the control 2, and brain was excised. Paraformaldehyde-fixed brain sample was washed and section having 30 μm of thickness was prepared therefrom. The Nissl staining, which can stain a native region of brain cells in normal status, was performed. Brain cell damage in the hippocampal region of the drug administration groups 1-3, wherein the Swertia japonica extract prepared in Example 1 was administered, and the controls 1 and 2 was assessed through a neurological scoring. Pertaining to the evaluation standard, 0 point was scored when there was no damage on the hippocampal region; 1 point for 0-30% of damage; 2 points for 30-60% of damage; and 3 points for 60-100% of damage. The points were scored by 3 people who have no knowledge of the drug administration groups and the controls. Average point was used to calculate the degree of damage.
Upon termination of the Y-maze test, the drug administration groups 1-3 and the control 2 were sacrificed to prepare the brain section, and the Nissl staining was conducted to evaluate brain cell damage in the hippocampal region of the drug administration groups 1-3, wherein swertisin prepared in Example 3 was administered, and the controls 1 and 2 through the neurological scoring.

mouse model of stroke = assay: Y-maze test in mouse model of stroke; settings: for Alternation Behavior (%): Table 11, test on 7th day; for Total Entry: Table 12
Protocol: as §1, §2
Administration of the Swertia japonica extract prepared in Example 1 was initiated to the mice prepared in the 1) immediately after the operation 3), and kept administering at the same time for 7 days. Five groups (5 mice per each group) were prepared as drug administration groups 1, 2 and 3, wherein the Swertia japonica extract prepared in Example 1 was administered thereto; and controls 1 and 2. 50 mg/kg, 100 mg/kg and 200 mg/kg of the Swertia japonica extract was administered to the drug administration groups 1, 2 and 3 respectively; and 0.15 mL of Tween 80 was administered to the controls 1 and 2 respectively. At the 7th day from the initial administration, the Y-maze test was conducted for the drug administration groups 1 to 3 and the controls 1 to 2 in the same manner as Experimental Example 1-5.
After 60 minutes, mice of the drug administration groups 1-3 and the controls 1-2 were carefully located on each branches of the Y-maze, which was divided as A, B and C respectively, and let the mice move freely for 8 minutes, and then recorded branches that mice have entered. The entrance was recorded when the entire body (i.e. including the tail) has completely entered. It was also recorded when the mice entered again into the branch that the mice have entered before. The result was converted into % via Equation 1.
Administration of swertisin prepared in Example 3 was initiated to the mice prepared in 1) immediately after the operation 3), and kept administering at the same time for 7 days. Five groups (5 mice per each group) were prepared as drug administration groups 1, 2 and 3, wherein swertisin prepared in Example 3 was administered thereto; and controls 1 and 2. 50 mg/kg, 100 mg/kg and 200 mg/kg of swertisin was administered to the drug administration groups 1, 2 and 3 respectively; and 0.15 mL of Tween 80 was administered to the controls 1 and 2 respectively. At the 7th day from the initial administration, the Y-maze test was conducted for the drug administration groups 1 to 3 and the controls 1 to 2 in the same manner as Experimental Example 1.

[3] = swertisin 50 mg/kg for 7 days after stroke operation
[4] = swertisin 100 mg/kg for 7 days after stroke operation
[5] = swertisin 200 mg/kg for 7 days after stroke operation

Compound: COc1cc2oc(-c3ccc(O)cc3)cc(=O)c2c(O)c1[C@@H]1O[C@H](CO)[C@@H](O)[C@H](O)[C@H]1O [swertisin]
- total sleep time compared to the control 1, in words ([1]; pentobarbital 60 mg/kg i.p.): remarkably decreased
- Total Sleep Time ([1]; pentobarbital 60 mg/kg i.p. 1 hour after administration): 94.47 ± 21.83 min
- Neurological Score ([2]; swertisin 50 mg/kg for 7 days): 1.8130 ± 0.3750
- Neurological Score ([2]; swertisin 100 mg/kg for 7 days): 1.2500 ± 0.2500
- Neurological Score ([2]; swertisin 200 mg/kg for 7 days): 1.1670 ± 0.5204
- neurological score, in words ([2]; swertisin 200 mg/kg (drug administration group 3) versus stroke-induced group): significant result to the stroke-induced group
- Alternation Behavior (%) (mouse model of stroke; [3]): 56.10 ± 7.431%
- Alternation Behavior (%) (mouse model of stroke; [4]): 57.58 ± 12.86%
- Alternation Behavior (%) (mouse model of stroke; [5]): 70.46 ± 15.74%
- Total Entry (mouse model of stroke; [3]): 24.14 ± 2.478
- Total Entry (mouse model of stroke; [4]): 28.50 ± 6.364
- Total Entry (mouse model of stroke; [5]): 22.00 ± 5.958
